Test results reported in ChEMBL document CHEMBL1140941 (J Med Chem, 2009).

Key:
[1] = target: T1, Bile acid receptor (Homo sapiens) (UniProt Q96RI1); assay: Agonist activity at human FXR expressed in african green monkey CV1 cells co-expressing ECRE with RXR co-factor up to 10 uM by luciferase reporter gene assay relative to CDCA; type: functional, cell-based; details: CV-1
T1 sequence (whole entry): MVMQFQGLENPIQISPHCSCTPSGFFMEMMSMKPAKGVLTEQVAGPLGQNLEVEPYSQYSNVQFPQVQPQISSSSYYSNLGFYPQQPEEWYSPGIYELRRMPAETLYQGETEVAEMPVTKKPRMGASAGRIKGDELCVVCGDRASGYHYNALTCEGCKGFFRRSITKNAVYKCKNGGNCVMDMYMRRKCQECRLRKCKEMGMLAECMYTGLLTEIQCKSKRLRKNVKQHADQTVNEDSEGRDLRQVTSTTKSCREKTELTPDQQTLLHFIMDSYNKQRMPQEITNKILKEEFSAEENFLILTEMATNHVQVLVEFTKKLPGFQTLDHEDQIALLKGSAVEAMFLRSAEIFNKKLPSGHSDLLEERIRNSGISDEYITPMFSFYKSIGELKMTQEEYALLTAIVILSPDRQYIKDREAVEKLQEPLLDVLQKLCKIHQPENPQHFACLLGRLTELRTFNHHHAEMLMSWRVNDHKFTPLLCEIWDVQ

Bile acid receptor = target: T2, Bile acid receptor (Homo sapiens, UniProt Q96RI1); assay: Agonist activity at human FXR expressed in african green monkey CV1 cells co-expressing ECRE with RXR co-factor by luciferase reporter gene assay; type: functional, cell-based, CV-1
T2 sequence (Q96RI1 whole entry): T1 sequence (whole entry)

Compound | Efficacy [1] [%] | EC50 (Bile acid receptor) [µM]
CCOC(=O)C1=CN(C(=O)c2ccc(Cl)cc2)CC(C)c2c1[nH]c1ccccc21 (stereo not given) | 155 | 0.073
CCOC(=O)C1=CN(C(=O)c2ccc(F)cc2)CC(C)c2c1[nH]c1ccccc21 (stereo not given) | 160 | 0.057
CCOC(=O)C1=CN(C(=O)c2ccc(F)cc2)CCc2c1[nH]c1ccccc21 | 100 | 0.6
CCCOC(=O)C1=CN(C(=O)c2ccc(F)cc2)CCc2c1[nH]c1ccccc21 | 130 | 0.5
CCOC(=O)C1=CN(C(=O)c2ccc(F)cc2)CC(C)(C)c2c1[nH]c1ccccc21 | 148 | 0.022
CC(C)OC(=O)C1=CN(C(=O)c2ccc(F)cc2)CC(C)(C)c2c1[nH]c1ccccc21 | 146 | 0.008
CCOC(=O)C1=CN(C(=O)c2ccc(Cl)cc2)CC(C)(C)c2c1[nH]c1ccccc21 | 190 | 0.025
CCCCOC(=O)C1=CN(C(=O)c2ccc(F)cc2)CCc2c1[nH]c1ccccc21 | 109 | 1.1
CCOC(=O)C1=CN(C(=O)c2ccc(OC)cc2)CC(C)c2c1[nH]c1ccccc21 (stereo not given) | 145 | 0.06
CCOC(=O)C1=CN(C(=O)c2ccc(F)c(F)c2)CC(C)(C)c2c1[nH]c1ccccc21 | 144 | –
CCOC(=O)C1=CN(C(=O)c2ccc(F)c(F)c2)CC(C)c2c1[nH]c1ccccc21 (stereo not given) | 170 | 0.032
CCOC(=O)C1=CN(C(=O)c2ccc(OC)cc2)CC(C)(C)c2c1[nH]c1ccccc21 | 139 | 0.029
CC(C)OC(=O)C1=CN(C(=O)c2ccc(F)cc2)CCc2c1[nH]c1ccccc21 | 120 | 0.5
